A value given as a limit tells only on which side of the number the result lay.

Data set [1] has as its target T1, Glucocorticoid receptor (Homo sapiens, UniProt P04150).
T1 sequence (P04150 whole entry): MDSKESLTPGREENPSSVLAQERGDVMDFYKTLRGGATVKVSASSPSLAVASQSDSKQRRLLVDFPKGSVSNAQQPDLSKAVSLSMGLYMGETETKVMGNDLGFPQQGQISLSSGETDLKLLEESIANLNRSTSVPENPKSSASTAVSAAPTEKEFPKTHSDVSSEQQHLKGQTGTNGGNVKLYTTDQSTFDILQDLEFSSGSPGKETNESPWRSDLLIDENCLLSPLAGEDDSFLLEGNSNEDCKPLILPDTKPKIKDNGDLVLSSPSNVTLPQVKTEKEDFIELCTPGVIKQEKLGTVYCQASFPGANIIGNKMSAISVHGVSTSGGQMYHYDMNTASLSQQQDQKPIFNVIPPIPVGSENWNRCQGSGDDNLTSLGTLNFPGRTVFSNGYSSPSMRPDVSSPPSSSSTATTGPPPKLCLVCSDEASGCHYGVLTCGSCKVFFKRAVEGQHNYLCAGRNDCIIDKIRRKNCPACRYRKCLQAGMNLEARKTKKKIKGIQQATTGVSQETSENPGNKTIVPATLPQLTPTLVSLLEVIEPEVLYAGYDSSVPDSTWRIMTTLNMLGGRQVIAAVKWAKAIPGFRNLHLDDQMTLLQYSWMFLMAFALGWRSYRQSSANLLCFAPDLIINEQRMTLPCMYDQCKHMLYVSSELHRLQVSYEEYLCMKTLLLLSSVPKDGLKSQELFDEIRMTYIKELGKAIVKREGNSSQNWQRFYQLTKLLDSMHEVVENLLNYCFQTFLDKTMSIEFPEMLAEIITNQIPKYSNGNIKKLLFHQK
Briefly: Binding affinity to glucocorticoid receptor (unknown origin) by Lanthascreen TR-FRET competition binding assay.

The target in data set [2] is T1, Glucocorticoid receptor. Briefly: Modulation of glucocorticoid receptor (unknown origin) transfected in human HeLa cells assessed as transrepression by measuring inhibition of TNF-alpha induced NF-kappaB signalling incubated for 18 hrs by dual-luciferase reporter based assay. Format: cell-based.
Data set [3] deals with T1, Glucocorticoid receptor. Briefly: Modulation of glucocorticoid receptor (unknown origin) transfected in human HeLa cells assessed as transrepression by measuring inhibition of PMA-induced AP-1 signalling incubated for 18 hrs by dual-luciferase reporter based assay. Format: cell-based.
Data set [4] deals with T1, Glucocorticoid receptor. Description: Antagonist activity at glucocorticoid receptor (unknown origin) transfected in human HeLa cells assessed as inhibition of dexamethasone-induced transactivation of receptor incubated for 18 hrs by firefly luciferase assay. Format: cell-based.
Data set [5] is described as follows: Inhibition of LPS-induced IL-6 secretion in mouse primary peritoneal macrophages by ELISA. Particulars: Peritoneal macrophage. Format: functional, cell-based.
Data set [6] is described as follows: Inhibition of LPS-induced TNF-alpha secretion in mouse primary peritoneal macrophages by ELISA. Format: functional, cell-based. Particulars: Peritoneal macrophage.
Data set [7] deals with NIH3T3. Briefly: Cytotoxicity against mouse 3T3 cells assessed as inhibition of cell growth. Format: toxicity, cell-based.
Data set [8] relates to GES1. Briefly: Cytotoxicity against human GES1 cells assessed as inhibition of cell growth. Format: toxicity, cell-based.
A short description of data set [9]: Cmax in BALB/c mouse at 10 mg/kg, po. Particulars: in vivo. Format: ADME, organism-based. More on the design: dose 10 mg/kg, route po.
A short description of data set [10]: Tmax in BALB/c mouse at 10 mg/kg, po. Format: ADME, organism-based. The conditions noted are these: in vivo.
A short description of data set [11]: Half life in BALB/c mouse at 10 mg/kg, po. Format: ADME, organism-based. Particulars: in vivo.
The nature of data set [12]: Oral bioavailability in BALB/c mouse at 10 mg/kg. Particulars: in vivo. Format: ADME, organism-based.
Data set [13] is described as follows: Toxicity in DNCB-induced BALB/c atopic dermatitis mouse model assessed as reduction in body weight at 5 to 20 mg/kg, po administered via gavage for 21 consecutive days starting from day 4 post DNCB stimulation. Format: organism-based. Particulars: in vivo, 504 h, dose 5-20 mg/kg, time 21 day.
Data set [14] is described as follows: Cytotoxicity against human Chang liver cells assessed as inhibition of cell growth. Format: toxicity, cell-based.
The nature of data set [15]: Toxicity in DNCB-induced BALB/c atopic dermatitis mouse model assessed as body weight gain at 1 mg/kg, po administered via gavage for 21 consecutive days starting from day 4 post DNCB stimulation. Format: organism-based. Particulars: in vivo, 504 h, time 21 day.

Consider `COc1cc(C)c(Cl)cc1S(=O)(=O)Nc1ccc2c(c1)CCCN2C(=O)c1ccccc1`, for which the IC50 in data set [1] was 1910 nM; in data set [2] it was 9 nM; in data set [3], 130 nM; in data set [4], 19000 nM; in [5], 6900 nM; in data set [6], 7740 nM. Besides, the Activity result in data set [7], in [8] and in data set [13] was “Non-Toxic” each time. The peak level in data set [9] (Cmax) was 394 ng/mL. Besides, the Tmax in data set [10] was 5 min. The half-life in [11] is 30 min. Besides, the bioavailability in data set [12] amounted to 19.8%.
For the compound `CC(C)[C@H](NC(=O)C(C)(F)F)[C@H](Oc1ccc2c(cnn2-c2ccc(=O)n(C)c2)c1)c1ccccc1` [MIZACORAT], the Activity result in data set [7], in data set [8] and in [14] was “Toxic” each time.
As for `COc1ccc(C(=O)/C=C/c2cccc(OC)c2OC)cc1`, the IC50 in data set [5] and in [6] was 10000 nM each time.
For the compound `C[C@@H]1C[C@H]2[C@@H]3CCC4=CC(=O)C=C[C@]4(C)[C@@]3(F)[C@@H](O)C[C@]2(C)[C@@]1(O)C(=O)CO` [DEXAMETHASONE], the Activity entry in [8] and in data set [15] was “Non-Toxic” throughout.
As to `COc1cc(C)c(Cl)cc1S(=O)(=O)Nc1ccc2c(c1)CCCN2C(=O)N(C)C`, the half-maximal inhibitory concentration (IC50) came out at 2750 nM in data set [1], 50 nM in data set [2], 530 nM in data set [3] and 27300 nM in data set [4].
In the case of `COc1cc(C)c(Cl)cc1S(=O)(=O)Nc1ccc2c(c1)CCCN2C(=O)c1ccc(C)cc1`, the IC50 in data set [1] was above 50000 nM; in data set [2], 80 nM; in data set [3], 1110 nM.
Regarding `O=C(c1ccco1)N1CCCc2cc(N(S(=O)(=O)c3ccc([N+](=O)[O-])cc3)S(=O)(=O)c3ccc([N+](=O)[O-])cc3)ccc21`, the IC50 was above 50000 nM in [1], 2660 nM in data set [2] and 4800 nM in data set [3].
Taken in the same sequence, the figures for `Cc1ccc(S(=O)(=O)N(c2ccc3c(c2)CCCN3C(=O)c2ccco2)S(=O)(=O)c2ccc(C)cc2)cc1` were above 50000 nM, 90 nM and 330 nM.
As to `O=C(c1ccco1)N1CCCc2cc(NS(=O)(=O)c3ccc4ccccc4c3)ccc21`, the IC50 in data set [1] was determined as 1120 nM; in [2] it was 190 nM; in data set [3] it was 2080 nM.
For `O=C(c1ccco1)N1CCCc2cc(NS(=O)(=O)c3ccc4c(c3)CCCC4)ccc21`, the IC50 was found to be 1220 nM in data set [1], 320 nM in data set [2] and 4070 nM in data set [3].
As for `COc1ccc(C)c(C)c1S(=O)(=O)Nc1ccc2c(c1)CCCN2C(=O)c1ccco1`, the IC50 in [1] came to 1350 nM; in data set [2], 100 nM; in data set [3], 990 nM.
With `CN(C)c1cccc2c(S(=O)(=O)Nc3ccc4c(c3)CCCN4C(=O)c3ccco3)cccc12`, the results for the IC50 in data set [1], in data set [2] and in data set [3] were above 50000 nM, 210 nM and 1670 nM, respectively.
As to `COc1cc(C)c(Cl)cc1S(=O)(=O)Nc1ccc2c(c1)CCCN2C(C)=O`, the IC50 amounted to 3190 nM in data set [1], 470 nM in [2], 2710 nM in data set [3] and 12100 nM in data set [4].
On to `O=C(c1ccco1)N1CCCc2cc(N(S(=O)(=O)c3ccc(F)cc3)S(=O)(=O)c3ccc(F)cc3)ccc21`, for which the results for the IC50 in data set [1], in [2] and in data set [3] were above 50000 nM, 840 nM and 2250 nM, respectively.
As to `O=C(c1ccco1)N1CCCc2cc(NS(=O)(=O)CCc3ccccc3)ccc21`, the IC50 was above 10000 nM in [1], above 10000 nM in data set [2], 6530 nM in [3] and above 10000 nM in [4].
Consider `O=C(c1ccco1)N1CCCc2cc(N(S(=O)(=O)c3ccccc3)S(=O)(=O)c3ccccc3)ccc21`, for which the half-maximal inhibitory concentration (IC50) in [1] is above 50000 nM; in data set [2] it was 390 nM; in [3], 620 nM.
Taken in the same sequence, the figures for `O=C(c1ccco1)N1CCCc2cc(N(S(=O)(=O)c3ccc(Cl)cc3)S(=O)(=O)c3ccc(Cl)cc3)ccc21` were above 50000 nM, 450 nM and 3960 nM.
Taken in the same sequence, the figures for `COc1cc(C)c(Cl)cc1S(=O)(=O)Nc1ccc2c(c1)CCCN2C(=O)c1ccc(C(F)(F)F)cc1` were 2220 nM, 300 nM and 3330 nM.
As to `COc1cc(C)c(Cl)cc1S(=O)(=O)Nc1ccc2c(c1)CCCN2C(=O)c1ccc(F)cc1`, the IC50 in data set [1] worked out at 6960 nM; in [2], 350 nM; in data set [3] it was 2730 nM; in [4], 14200 nM.
Consider `CC(C)(C)c1ccc(S(=O)(=O)Nc2ccc3c(c2)CCCN3C(=O)c2ccco2)cc1`, for which the IC50 in data set [1] was 470 nM; in [2], 180 nM; in data set [3] it was 1150 nM.
As to `COc1cc(C)c(Cl)cc1S(=O)(=O)Nc1ccc2c(c1)CCCN2C(=O)c1ccc2ccccc2c1`, the concentration for half-maximal inhibition (IC50) in [1] worked out at 3280 nM; in data set [2], 330 nM; in data set [3] it was 1950 nM.

(Values after ChEMBL document CHEMBL5236596, “Discovery and Optimization of N-Acyl-6-sulfonamide-tetrahydroquinoline Derivatives as Novel Non-Steroidal Selective Glucocorticoid Receptor Modulators” (J Med Chem, 2022).)
